Laboratory results from PubChem BioAssay (NCI).
Several values for one entry are separate records, joined by “and”; a condition that tells them apart may be missing. Identical values can stand only once.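 Briefly, cells in 96-well plates were exposed to five compound concentrations for 48 h, and endpoints were estimated by linear interpolation. GI50 is the concentration that inhibits growth by half. TGI is the concentration that stops growth completely.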

System: MDA-MB-468 breast
Assay: NCI tumour cell line growth inhibition, 48 h

Compound	GI50	TGI
O=C1/C(=C/c2ccccc2[N+](=O)[O-])COc2ccc(O)c(O)c21	608 nM	2940 nM
Oc1cccc(-c2nc(-c3ccccc3)[nH]c2-c2ccncc2)c1	2080 nM	11400 nM
C#Cc1ccc(-n2c(/C=C/c3ccc4ccccc4c3)nc3ncccc3c2=O)cc1	963 nM	7770 nM
CNCCNc1nc2ccccc2c2c(=O)c3cccc(C)c3sc12	892 nM	1940 nM
O=c1c2cc(-c3ccc(F)cc3F)ccc2n(O)c(=O)n1-c1cccc(C(F)(F)F)c1	1680 nM	5400 nM
N=C1/C(=C2\Nc3ccccc3S2)CC(=O)N1c1ccc(SC(F)F)cc1	> 100000 nM	> 100000 nM
Fc1ccc(-c2c(-c3ccncc3)[nH]c3nccnc23)cc1	4480 nM	> 21500 nM
CCCCNNC(=O)c1ccc(-c2cccc(F)c2F)cc1	1710 nM	6060 nM
CNCCN(C)Cc1cn[nH]c1-c1ccc(OC2CC(OCCC3CCOCC3)C2)cc1 (centres undefined)	33700 nM	> 100000 nM
O=C(O)c1cn(C2CC2)c2cc(N3CCN(Cc4ccc5ccccc5c4O)CC3)c(F)cc2c1=O	4550 nM	> 100000 nM
COC(=O)c1ccc2c(C(=Nc3ccc(N(C)C(=O)CN4CCN(C)CC4)cc3)c3ccccc3)c(O)[nH]c2c1	2130 nM	9780 nM
CS(=O)(=O)N1CCc2c(-c3cnc(N)nc3)nc(N3CCOCC3)nc21	305 nM and 264 nM	3000 nM and 2300 nM
CCCCOc1ccc(S(=O)(=O)N2CCN(c3nc(C)cc(N4CCOCC4)n3)CC2)cc1	2690 nM	> 100000 nM
CCCc1n(Cc2ccc3ccccc3n2)cc[n+]1Cc1ccc2ccccc2n1	232 nM	1550 nM
O=C(Nc1ccccc1)Nc1ccc(Cl)c(Cl)c1	2830 nM	13900 nM
CC1(O)COCCCCOc2c(CN)cccc2NC(=O)c2nc(cnc2N)-c2ccc(cc2)S(=O)(=O)C(C)(C)C1 (centres undefined)	939 nM	2520 nM
COc1cc(-c2nn(-c3cccc(NC(=O)CCN4CCN(C)CC4)c3)cc2-c2ccncc2)ccc1Cl	997 nM	2850 nM
COCCOC1=C(Cl)C(=O)c2c(O)ccc(O)c2C1=O	899 nM	2450 nM
CCN(CCO)CCCOc1ccc2c(Nc3cc(CC(=O)Nc4cccc(F)c4)[nH]n3)ncnc2c1	1040 nM and 109 nM	18900 nM
CCN1C(=O)N(CC)C2C1NN=c1s/c(=C\c3ccc(OC)cc3)c(=O)n12 (centres undefined)	130 nM	> 60800 nM

Compound	GI50	TGI
COC(=O)[C@]12CC[C@@H](C)[C@H](C)[C@@H]1C1=CC[C@@H]3[C@@]4(C)CC(=O)[C@H](O)[C@@](C)(CO)[C@@H]4C(=O)C[C@@]3(C)[C@]1(C)CC2	15200 nM	32200 nM
Cc1cc(N)cc(C)c1-c1c(Br)cc(N)cc1Br	2090 nM	6580 nM
N[C@@H](CSSC[C@H](N)C(=O)N1CCn2cc(-c3ccccc3)nc2[C@@H]1CC1CCCCC1)C(=O)N1CCn2cc(-c3ccccc3)nc2[C@@H]1CC1CCCCC1	1070 nM	2530 nM
CC(C)[C@H](C(=O)O[C@@H]1/C=C/C(=O)O[C@@H](C)CCC/C=C/[C@@H]2C[C@H](O)C[C@H]21)N(C)C	1610 nM	4620 nM
CNc1ncc2cc(-c3cc(NC(=O)NCCC(C)(C)C)c(F)cc3C)c(C)nc2n1		> 67100 nM
Cc1[nH]n(-c2cccc(Cl)c2)c(=O)c1/C=C1\C=c2ccccc2=CC1=O	17600 nM	74700 nM
O=C1NC(=N[C@H](CO)c2ccccc2)S/C1=C\c1ccc2ncccc2c1	2060 nM	8970 nM
Cc1cc(C#Cc2ccccc2)ccc1-n1c(/C=C/c2cc(O)ccc2O)nc2ccccc2c1=O	1610 nM	4190 nM
FC(F)(F)c1ccc(NCc2nc3ccccc3[nH]2)cc1	16700 nM	55600 nM
COc1ccc2nc3cc(Cl)ccc3c(Nc3cc(C(C)C)c(O)cc3C)c2c1	1560 nM	4600 nM
CN1CCN(c2ccc(Nc3ncc4cc5n(c4n3)C3(CCCCC3)CNC5=O)nc2)CC1	10900 nM	36000 nM
COc1ccc(-c2nc3sccn3c2-c2ccnc(NCCCNS(=O)(=O)c3ccc(F)cc3)n2)cc1	1550 nM	6480 nM
Cn1cc(C2=C(c3c(S(C)=O)n(C)c4ccccc34)C(=O)NC2=O)c2ccccc21 (centres undefined)	6710 nM	> 25000 nM
COc1ccc(/C=C2/CN(CCC#N)C/C(=C\c3ccc(OC)cc3)C2=O)cc1	1390 nM	4950 nM
COc1ccc2c(c1)N(CCO)C1=C(C(=O)OC1)C2c1ccc(OC)c(OC)c1 (centres undefined)	1740 nM	7570 nM
N#Cc1ccc(/C=C/C(=O)c2ccccc2)cc1	5950 nM and 1890 nM	21100 nM and 5440 nM
OCc1ccc(N(Cc2ccc(F)cc2)CC2CCC2)cc1Cl	184 nM	610 nM
O=C(CSc1ncc(-c2ccccc2)n1-c1ccccc1)Nc1ccc(-c2nc3ccccc3s2)cc1	1350 nM	4960 nM
O=C1NC(=O)C(c2c[nH]c3ccccc23)=C1c1ccccc1	> 25000 nM	> 25000 nM
COc1cc(Cn2c(SCC(=O)Nc3ccc(Cl)cc3)nc3ccccc3c2=O)cc(OC)c1OC	7220 nM	42400 nM
